US8466289B2, “Heterocyclic sulfonamide derivatives” (Novartis AG, priority 2009, dated 2013)

Key:
[1] = test system: BRAF-MEK-ERK cascade (activated BRAF (V599E), unactive MEK1, unactive MAP Kinase 2/ERK2); experiment: BRAF-MEK-ERK enzymatic cascade assay (TR-FRET); assay type: biochemical, human; conditions: compounds screened at 10 μM, 45 minutes pre-incubation with enzymes, 100 μM ATP
Excerpt: A BRAF-MEK-ERK cascade assay is used to evaluate the effects of the compounds as inhibitors of the MAP kinase pathway. An enzymatic cascade assay is set up using recombinant human activated BRAF (V599E) kinase (Cat No. 14-557), human full length unactive MEK1 kinase (Cat No. 14-706) and human full length unactive MAP Kinase 2/ERK2 (Cat No. 14-536) enzymes procured from Upstate. TR-FRET (Time resolved fluorescence resonance energy transfer) detection technology is used for the read out. The assay buffer solution contains 50 mM Tris pH 7.5, 10 mM MgCl2, 1 mM DTT, 0.01% Tween 20, 0.1 nM activated BRAF, 2 nM unactive MEK1, 10 nM unactive ERK2, 100 μM ATP and 500 nM long chain biotin-peptide substrate (LCB-FFKNIVTPRTPPP) in a 384 well format. The kinase reaction is stopped after 90 minutes with 10 mM EDTA and Lance detection mix (2 nM Eu-labeled phospho-serine/threonine antibody (Cat. No. AD0176-Perkin Elmer), 20 nM SA-APC (Cat No. CR130-100-Perkin Elmer) is added. The TR-FRET signal (Excitation at 340 nm, Emission at 615 nm and 665 nm) is read with 50 μs delay time on a Victor3 V fluorimeter. The data is calculated using the ratio of readings at 665 nm to 615 nm. The final concentration of DMSO is 2.5% in the assay. Compounds are screened at 10 μM concentration with pre-incubation of the enzymes in the presence of test compound for 45 minutes.
Each individual IC50 is determined using a 10 point dose response curve generated by GraphPad Prism software Version 4 (San Diego, Calif., USA) using non linear regression curve fit for sigmoidal dose response (variable slope).
These assays described above are fully detailed in Han, Shulin, et. al., Bioorganic & Medicinal Chemistry Letters (2005) 15, 5467-5473, and in Yeh, et. al., Clin Cancer Res (2007) 13 (5), 1576-1583.
(§1) The compounds of the above Examples were evaluated as inhibitors of the MAP kinase pathway in a BRAF-MEK-ERK enzymatic cascade assay and in the cell viability assay described above.

[2] = test system: A375 cells; experiment: cell viability assay in A375 cells using XTT; assay type: cell-based; conditions: Homo sapiens, A-375, 72 h, XTT read three days after compound addition
Description: The cell viability assay in A375 cells is set up in a 96-well plate format using XTT.
XTT is a yellow tetrazolium salt that is cleaved to an orange formazan dye by the mitochondria of metabolically active cells. The procedure allows for rapid determination in a microtitre plate, to give reproducible and sensitive results.
A375 cells are grown in DMEM media containing 10% FBS and 1 mM sodium pyruvate. Cells are trypsinized and seeded at 1000 cells/well. After allowing the cells to adhere overnight, compound is added to the wells at the following final concentrations: 10, 3, 1, 0.3, 0.1, 0.03, 0.01, 0.001, and 0.0001 μM. The assay is set up in triplicates for each concentration. DMSO concentrations are kept at 0.5%/well. Three days after compound addition, the XTT assay is performed. Wells are washed once with PBS. 100 μL of DMEM media without phenol red or FBS is added to each well. A working solution of XTT containing 1 mg/ml XTT and 100 μL of PMS (stock concentration 0.383 mg/ml) per 5 ml is prepared. 50 μL of the working solution of XTT is added to each well. Absorbance of the plate is read at 465 nm using a Spectramax 190 (Molecular Devices). The absorbance from wells with media and XTT alone, but without cells is considered the blank and subtracted from readings from all wells.
Percentage viability is calculated considering the blank subtracted value from wells treated with DMSO alone as 100% viable. GI50 values are calculated using Graphpad Prism, using non-linear regression curve fit for sigmoidal dose response (variable slope).
The cell viability assay is further described in Scudiero, et. al., Cancer Research (1988) 48, 4827-4833; Weislow, et. al., J. Natl. Cancer Institute, (1989) 81, 577-586; and Roehm, et. al., J. Immunol. Methods [1991]142:257-265.
as §1

| SMILES | % inhibition [1] [%] | GI50 [2] [µM] |
| --- | --- | --- |
| Cc1c(Nc2ccc(I)cc2F)c(NS(=O)(=O)N(C)C)c2n(c1=O)CCS2 [Example 23A, N-[7-(2-Fluoro-4-iodo-phenylamino)-6-methyl-5-oxo-2,3-dihydro-5H-thiazolo[3,2-a]pyridin-8-yl]-dimethylaminosulfonamide] | 100 | 0.107 |
| Cc1c(Nc2ccc(I)cc2F)c(NS(=O)(=O)C2CC(O)C2)c2n(c1=O)CCN2 (centres unmarked) [Example 6A, 3-Hydroxy-cyclobutanesulfonic acid [7-(2-fluoro-4-iodo-phenylamino)-6-methyl-5-oxo-1,2,3,5-tetrahydro-imidazo[1,2-a]pyridin-8-yl]-amide] | 100 | 1.38 |
| Cc1c(Nc2ccc(I)cc2F)c(NS(=O)(=O)C2CC2)c2n(c1=O)CCO2 [Example 7A, Cyclopropanesulfonic acid [7-(2-fluoro-4-iodo-phenylamino)-6-methyl-5-oxo-2,3-dihydro-5H-oxazolo[3,2-a]pyridin-8-yl]-amide] | 99 | 0.026 |
| Cc1c(Nc2ccc(I)cc2F)c(NS(=O)(=O)C2CC2CO)c2n(c1=O)CCO2 (centres unmarked) [Example 8A, 2-Hydroxymethyl-cyclopropanesulfonic acid [7-(2-fluoro-4-iodo-phenylamino)-6-methyl-5-oxo-2,3-dihydro-5H-oxazolo[3,2-a]pyridin-8-yl]-amide] | 100 | 0.122 |
| Cc1c(Nc2ccc(I)cc2F)c(NS(=O)(=O)C2(CO)CC2)c2n(c1=O)CCS2 [Example 22A, 1-Hydroxymethyl-cyclopropanesulfonic acid [7-(2-fluoro-4-iodo-phenylamino)-6-methyl-5-oxo-2,3-dihydro-5H-thiazolo[3,2-a]pyridin-8-yl]-amide] | 97 | 0.061 |
| Cc1c(Nc2ccc(Br)cc2F)c(NS(=O)(=O)C2CC2)c2n(c1=O)CCN2 [Example 2A, Cyclopropanesulfonic acid [7-(4-bromo-2-fluoro-phenylamino)-6-methyl-5-oxo-1,2,3,5-tetrahydro-imidazo[1,2-a]pyridin-8-yl]-amide] | 100 | 0.8 |
| Cc1c(Nc2ccc(I)cc2F)c(NS(=O)(=O)C2CCCC2)c2n(c1=O)CCS2 [Example 24A, Cyclopentanesulfonic acid [7-(2-fluoro-4-iodo-phenylamino)-6-methyl-5-oxo-2,3-dihydro-5H-thiazolo[3,2-a]pyridin-8-yl]-amide] | 100 | 0.192 |
| Cc1c(Nc2ccc(I)cc2F)c(NS(=O)(=O)C2CC2)c2n(c1=O)CCN2 [Example 3A, Cyclopropanesulfonic acid [7-(2-fluoro-4-iodo-phenylamino)-6-methyl-5-oxo-1,2,3,5-tetrahydro-imidazo[1,2-a]pyridin-8-yl]-amide] | 100 | 0.019 |
| Cc1c(Nc2ccc(I)cc2F)c(NS(=O)(=O)CCC(CO)CO)c2n(c1=O)CCO2 [Example 18A, N-(7-(2-fluoro-4-iodophenylamino)-6-methyl-5-oxo-3,5-dihydro-2H-oxazolo[3,2-a]pyridin-8-yl)-4-hydroxy-3-(hydroxymethyl)butane-1-sulfonamide] | 100 | 4.26 |
| Cc1c(Nc2ccc(I)cc2F)c(NS(=O)(=O)C2(CCO)CC2)c2n(c1=O)CCO2 [Example 9A, 1-(2-Hydroxy-ethyl)-cyclopropanesulfonic acid [7-(2-fluoro-4-iodo-phenylamino)-6-methyl-5-oxo-2,3-dihydro-5H-oxazolo[3,2-a]pyridin-8-yl]-amide] | 100 | 0.019 |
| Cc1c(Nc2ccc(Br)cc2F)c(NS(=O)(=O)C2(CC(O)CO)CC2)c2n(c1=O)CCN2 (centres unmarked) [Example 4A, 1-(2,3-Dihydroxy-propyl)-cyclopropanesulfonic acid [7-(4-bromo-2-fluoro-phenylamino)-6-methyl-5-oxo-1,2,3,5-tetrahydro-imidazo[1,2-a]pyridin-8-yl]-amide] | 100 | 2.88 |
| Cc1c(Nc2ccc(I)cc2F)c(NS(=O)(=O)C2CC(C(CO)CO)C2)c2n(c1=O)CCO2 (centres unmarked) [Example 15A, 3-(1,3-dihydroxypropan-2-yl)-N-(7-(2-fluoro-4-iodophenylamino)-6-methyl-5-oxo-3,5-dihydro-2H-oxazolo[3,2-a]pyridin-8-yl)cyclobutane-1-sulfonamide] | 100 | 1.53 |
| Cc1c(Nc2ccc(I)cc2F)c(NS(=O)(=O)C2CC2CO)c2n(c1=O)CCS2 (centres unmarked) [Example 21A, 2-Hydroxymethyl-cyclopropanesulfonic acid [7-(2-fluoro-4-iodo-phenylamino)-6-methyl-5-oxo-2,3-dihydro-5H-thiazolo[3,2-a]pyridin-8-yl]-amide] | 100 | 0.158 |
| Cc1c(Nc2ccc(I)cc2F)c(NS(=O)(=O)C2CC(O)C2)c2n(c1=O)CCO2 (centres unmarked) [Example 13A, 3-Hydroxy-cyclobutanesulfonic acid [7-(2-fluoro-4-iodo-phenylamino)-6-methyl-5-oxo-2,3-dihydro-5H-oxazolo[3,2-a]pyridin-8-yl]-amide] | 100 | 0.122 |
| Cc1c(Nc2ccc(I)cc2F)c(NS(=O)(=O)C2(CC(O)CO)CC2)c2n(c1=O)CCN2 (centres unmarked) [Example 5A, 1-(2,3-Dihydroxy-propyl)-cyclopropanesulfonic acid [7-(2-fluoro-4-iodo-phenylamino)-6-methyl-5-oxo-1,2,3,5-tetrahydro-imidazo[1,2-a]pyridin-8-yl]-amide] | 100 | 0.293 |
| Cc1c(Nc2ccc(I)cc2F)c(NS(=O)(=O)C2CCC2)c2n(c1=O)CCS2 [Example 26A, Cyclobutanesulfonic acid [7-(2-fluoro-4-iodo-phenylamino)-6-methyl-5-oxo-2,3-dihydro-5H-thiazolo[3,2-a]pyridin-8-yl]-amide] | 100 | 0.156 |
| Cc1c(Nc2ccc(I)cc2F)c(NS(=O)(=O)C2(CC(O)CO)CC2)c2n(c1=O)CCO2 (centres unmarked) [Example 10A, 1-(2,3-Dihydroxy-propyl)-cyclopropanesulfonic acid [7-(2-fluoro-4-iodo-phenylamino)-6-methyl-5-oxo-2,3-dihydro-5H-oxazolo[3,2-a]pyridin-8-yl]-amide] | 100 | 0.033 |
| Cc1c(Nc2ccc(I)cc2F)c(NS(=O)(=O)C2CC(O)C2)c2n(c1=O)CCS2 (centres unmarked) [Example 25A, 3-Hydroxy-cyclobutanesulfonic acid [7-(2-fluoro-4-iodo-phenylamino)-6-methyl-5-oxo-2,3-dihydro-5H-thiazolo[3,2-a]pyridin-8-yl]-amide] | 100 | 0.922 |
| Cc1c(Nc2ccc(Br)cc2F)c(NS(=O)(=O)C2CC2)c2n(c1=O)CCN2Cc1ccccc1 [Example 1A, Cyclopropanesulfonic acid [1-benzyl-7-(4-bromo-2-fluoro-phenylamino)-6-methyl-5-oxo-1,2,3,5-tetrahydro-imidazo[1,2-a]pyridin-8-yl]-amide] | 70 |  |
| Cc1c(Nc2ccc(I)cc2F)c(NS(=O)(=O)CCC2COC2)c2n(c1=O)CCO2 [Example 17A, N-(7-(2-fluoro-4-iodophenylamino)-6-methyl-5-oxo-3,5-dihydro-2H-oxazolo[3,2-a]pyridin-8-yl)-2-(oxetan-3-yl)ethanesulfonamide] |  | 1.73 |
